# From article PMC5130624 (International journal for parasitology, 2016)
# Like-named read-outs stand apart in the source and are kept apart here.
# Assays:
# [1] = system: hERG; details: cited from earlier work
# [2] = system: S. neurona strain F9F merozoites; assay: S. neurona parasite growth assay in bovine turbinate cells; format: cell-based, Sarcocystis neurona
# [3] = Oral pharmacokinetics in newborn calves; details: unpublished data
# [4] = system: SnCDPK1 in S. neurona cell lysate; assay: Cell lysate thermal shift assay; format: binding, Sarcocystis neurona; details: BKI 2 µM, 0.5% DMSO, Tm (compound)-Tm (DMSO)
# [5] = target: recombinant SnCDPK1; assay: SnCDPK1 kinase activity assay; format: biochemical, Sarcocystis neurona; details: read-out: SnCDPK1 enzyme IC50; inhibition of phosphorylation activity
# [6] = system: TgCDPK1; details: read-out: TgCDPK1 enzyme IC50; ref Johnson et al., 2012; cited from earlier work
# [7] = target: T1, recombinant TgCDPK1 (Toxoplasma gondii, UniProt Q9BJF5); assay: Recombinant TgCDPK1 thermal shift assay; format: binding; details: 20 µM BKI, 5% DMSO; change in Tm vs DMSO control
# T1 sequence (Q9BJF5 1-507): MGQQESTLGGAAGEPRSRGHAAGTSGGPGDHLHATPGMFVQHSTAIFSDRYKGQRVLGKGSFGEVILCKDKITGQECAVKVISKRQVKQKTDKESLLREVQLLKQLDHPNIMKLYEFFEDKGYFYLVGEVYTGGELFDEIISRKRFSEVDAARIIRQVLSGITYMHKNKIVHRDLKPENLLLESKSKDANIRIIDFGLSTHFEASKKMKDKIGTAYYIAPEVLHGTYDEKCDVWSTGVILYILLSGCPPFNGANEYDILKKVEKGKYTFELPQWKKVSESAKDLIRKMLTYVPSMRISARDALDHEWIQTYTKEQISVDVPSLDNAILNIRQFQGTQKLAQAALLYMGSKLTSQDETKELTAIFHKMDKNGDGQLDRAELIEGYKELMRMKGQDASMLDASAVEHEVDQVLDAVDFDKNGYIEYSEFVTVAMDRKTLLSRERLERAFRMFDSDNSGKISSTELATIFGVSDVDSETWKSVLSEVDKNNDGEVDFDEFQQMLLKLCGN
# [8] = bovine, in vivo
# [9] = system: recombinant SnCDPK1; assay: Recombinant SnCDPK1 thermal shift assay; format: binding, Sarcocystis neurona; details: 20 µM BKI, 5% DMSO; change in Tm vs DMSO control
SMILES,"hERG inhibition ([1]; ref Ojo et al., 2014a)","EC50 ([2]; Sarcocystis neurona, in Bos taurus, 96 h, read-out: S. neurona cell growth EC50) [nM]","Effect of time of addition on growth inhibition ([2]; added at parasite inoculation (0 h) versus 2 h p.i., 4 days)",Oral pharmacokinetics [3],S. neurona cell CDPK1 Thermal Stability (°C) [4] [°C],IC50 [5] [nM],IC50 [6] [nM],"hERG inhibition ([1]; ref Vidadala et al., 2016)",Recombinant TgCDPK1 Thermal Shift (°C) at 20 µM [7] [°C],Oral pharmacokinetics [8],Recombinant SnCDPK1 Thermal Shift (°C) at 20 µM [9] [°C]
CCOc1ccc2cc(-c3nn(CC4CCN(C)CC4)c4ncnc(N)c34)ccc2c1 [compound 1294],has recently been shown to have hERG inhibition,68,more effective if added at the time of infection rather than 2 h later,outstanding oral pharmacokinetics,2.7,< 10,[…],–,–,–,–
CCOc1ccc2cc(-c3nn(C(C)(C)C)c(N)c3C(N)=O)cnc2c1 [compound 1517],–,–,–,–,8.0,< 10,–,lack of hERG inhibition,10.5,outstanding oral pharmacokinetics,9.6
